In US9326513B2, “Fungicidal compositions” (Syngenta Participations AG, priority 2011, dated 2016):
Several values for one entry are separate records, joined by “and”; a condition that tells them apart may be missing. Equal values may be shown once. Read-outs that look alike come from different tables or passages of the source.

Columns and labels:
[1] = system: Puccinia recondita f. sp. tritici; test: Puccinia recondita f. sp. tritici / wheat / leaf disc curative (brown rust); assay type: in vivo; details: foliar, compared to untreated control leaf disks, read-out: disease control
Procedure: Puccinia recondita f. sp. tritici/Wheat/Leaf Disc Curative (Brown Rust) Wheat leaf segments cv. Kanzler are placed on agar in multiwell plates (24-well format). The leaf segments are inoculated with a spore suspension of the fungus. Plates were stored in darkness at 19° C. and 75% rh. The formulated test compound diluted in water was applied 1 day after inoculation.

[2] = system: Puccinia recondita f. sp. tritici; test: Puccinia recondita f. sp. tritici / wheat / leaf disc preventative (brown rust); assay type: in vivo; details: foliar, compared to untreated control leaf disks, read-out: disease control
Text: Puccinia recondita f. sp. tritici/Wheat/Leaf Disc Preventative (Brown Rust) Wheat leaf segments cv. Kanzler were placed on agar in multiwell plates (24-well format) and sprayed with the formulated test compound diluted in water. The leaf disks were inoculated with a spore suspension of the fungus 1 day after application.

[3] = system: Fusarium graminearum and Fusarium culmorum; assay type: in vivo; details: solo, wheat, 1 day preventive, 9 days after application
[4] = system: Blumeria graminis f. sp. tritici (Erysiphe graminis f. sp. tritici); test: Blumeria graminis f. sp. tritici / wheat / leaf disc preventative (powdery mildew on wheat); assay type: in vivo; details: foliar, compared to untreated control leaf disks, read-out: disease control
In short: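 Preventative leaf-disc test: compound (200 ppm) was sprayed onto cv. Kanzler wheat segments, which were dusted with conidia from infected plants 1 day after application. After incubation at 20° C and 60% rh, disease control relative to untreated segments was rated 6-8 days after application.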

Septoria tritici [5] = test: Septoria tritici on wheat, preventive treatment; assay type: in vivo; details: solo, wheat Riband, 1 day preventive, 18 days after application
Septoria tritici [6] = test: Septoria tritici (leaf blotch), YBG microtiter plate, photometric growth inhibition after 6 days; assay type: cell-based; details: Zymoseptoria tritici, 144 h, solo
Text: In the following Tables ‘Activity (%)’ means the assessed experimental activity (% disease control in this test when compared to untreated control leaf disks under the same conditions, which show extensive disease development) and “P” is the expected value calculated (expected) activity according to the COLBY formula (see above). The column headed ‘S?’ indicates whether or not synergy was observed, with ‘y’ meaning that synergy was observed.
Septoria tritici (Leaf Blotch):
After placing solutions of the test compounds (containing 0.2% DMSO) into a microtiter plate (96-well format), an equal amount of the nutrient broth (YBG) was added to each of the well. Finally the fungal spore solution was added. The test plates were incubated at 20° C. The inhibition of growth was determined photometrically after 6 days and the activity calculated in relation to untreated control.

Septoria tritici [7] = test: Septoria tritici (leaf blotch), PDB microtiter plate, visual after 72 hrs; assay type: cell-based; details: Zymoseptoria tritici, single compound, 0.0125 ppm
[8] = system: Monographella nivalis (syn. Microdochium nivale, Fusarium nivale); test: Monographella nivalis (snow mould, foot rot of cereals), PDB microtiter plate, visual after 72 hrs; assay type: cell-based; details: Monographella nivalis
Botrytis cinerea = Botrytis cinerea (gray mould), PDB microtiter plate, visual after 72 hrs; assay type: cell-based; details: alone

CCN(C)/C=N/c1cc(Br)c(OCc2ccccc2C)nc1C [Q.151]
pest or weed control at 200 ppm [1]: ≥ 50%
pest or weed control at 200 ppm [2]: ≥ 50%
Activity ([3]; 200 g a.i./ha): 3%
pest or weed control at 200 ppm [4]: ≥ 50%
Activity (Septoria tritici [5]; 1 g a.i./ha): 0%
Activity (Septoria tritici [5]; 3 g a.i./ha): 0% and 4%
Activity (Septoria tritici [5]; 9 g a.i./ha): 0%
Activity (Septoria tritici [5]; 81 g a.i./ha): 43%

OC(Cc1ccccc1Cl)(Cn1nc[nH]c1=S)C1(Cl)CC1 (stereo not shown) [Prothioconazole]
inhibition of growth at 0.0195312 ppm (Septoria tritici [6]; rate 0.01953125 ppm): 69%
inhibition of growth at 0.03125 ppm (Septoria tritici [6]; rate 0.03125 ppm, read-out: Activity): 9%
inhibition of growth at 0.0390625 ppm (Septoria tritici [6]; rate 0.0390625 ppm): 63%
inhibition of growth at 0.0625 ppm (Septoria tritici [6]; rate 0.0625 ppm): 63%
inhibition at 0.0125 ppm (Septoria tritici [7]): 70%
inhibition at 0.0125 ppm ([8]; applied alone, 0.0125 ppm): 0%
inhibition at 0.0015625 ppm ([8]; applied alone, rate 0.0015625 ppm): 0%
inhibition at 0.003125 ppm ([8]; applied alone, rate 0.003125 ppm): 0%
inhibition at 0.00625 ppm ([8]; applied alone, rate 0.00625 ppm): 0%
inhibition at 0.0125 ppm ([8]; applied alone, rate 0.0125 ppm): 0%
inhibition at 0.0125 ppm ([8]; single compound, rate 0.0125 ppm): 0%
Activity ([3]; 50 g a.i./ha): 55%
inhibition at 0.00625 ppm (Botrytis cinerea; Botrytis cinerea, rate 0.00625 ppm): 0%
inhibition at 0.0125 ppm (Botrytis cinerea; Botrytis cinerea, rate 0.0125 ppm): 0%
inhibition at 0.025 ppm (Botrytis cinerea; Botrytis cinerea, rate 0.025 ppm): 0%
inhibition at 0.05 ppm (Botrytis cinerea; Botrytis cinerea, rate 0.05 ppm): 50%
Activity (%) (Botrytis cinerea; rate 0.05 ppm): 70%
